From patent US5045566A, “Novel imidate insecticides” (ICI Americas Inc., priority 1989, dated 1991) come the findings set out here.

Molecules are shown by their SMILES.

Assay type in all cases: in vivo
Assay [1] concerns Cabbage Looper [Trichoplusia ni (Hubner)]. Put plainly: Cabbage looper leaf dip (CL), 3-5 days. Conditions: percent in solution, second-instar larvae. On the procedure: (§1) The compounds in Tables 1 and 2 above were tested for insecticidal activity using the following testing procedures. LC50 values, based on the results of these tests and calculated according to dosage-mortality curves, are expressed in Table 3.
Cabbage Looper [Trichoplusia ni (Hubner)]:
Test compounds were diluted in a 50-50 acetone-water solution. Cotyledons of hyzini squash (Calabacita abobrinha), approximately 1×1.5 inches, were immersed in the test solutions for 2-3 seconds and placed on a wire screen to dry. The dried leaves were placed in petri dishes containing a moistened piece of filter paper and infested with 5 second-instar cabbage looper larvae. The dishes were placed in a high humidity chamber. Mortality of the larvae was recorded 3-5 days later. Test concentrations ranged from 0.1% downward. The LC-50 value is expressed below in Table 3 under the heading "CL" in terms of percent of the test compound in solution.

Assay [2] relates to Black Bean Aphid [Aphis fabae (Scop.)]. Description: Black bean aphid spray test on nasturtium (BBA), 48 hours. Conditions: percent of test compound in sprayed solution. The protocol: as §1
Black Bean Aphid [Aphis fabae (Scop.)]:
Nasturtium plants (Tropaeolum sp.) approximately 5 cm tall, were transplanted into sandy loam soil in small cups and infested with 25-50 black bean aphids of mixed ages. Twenty-four hours later they were sprayed to the point of runoff with 50-50 acetone-water solutions of the test compounds. Treated plants were held in the greenhouse and mortality was recorded after 48 hours. Test concentrations ranged from 0.05% downward. The LC-50 value is expressed below in Table 3 under the heading "BBA" in terms of percent of the test compound in the sprayed solution.

The test system of assay [3] is Housefly [Musca domestica]. Description: Housefly contact mortality in dishes (HF), 48 hours. The note with it: μg of test compound per 25 female flies. The protocol: as §1
Housefly [Musca domestica]:
Test compounds were diluted in acetone and aliquots pipetted onto the bottom of aluminum dishes. To ensure even spreading of the chemical on the bottom of the dishes, 1 ml of acetone containing 0.01% peanut oil was also added to each dish. After all solvents had evaporated, the dishes were placed in circular cardboard cages containing 25 female houseflies, 1-2 days old. The cages were covered on the bottom with cellophane and on the top with tulle netting, and each contained a sugar-water saturated cotton plug for maintenance of the flies. Mortality was recorded after 48 hours. Test levels ranged from 100 μg/25 female houseflies downward. The LC-50 value is expressed below in Table 3 under the heading "HF", in terms of μg of the test compound per 25 female flies.

The subject of assay [4] is Tobacco Budworm [Heliothis virescens (Fabricius)] eggs. Put plainly: Tobacco budworm eggs (TBW-E). Conditions: percent in solution; 2-day old eggs. The protocol:
as §1
Tobacco Budworm [Heliothis virescens (Fabricius)]:
(b). Eggs: Paper towel patches of 2-day old eggs of the tobacco budworm were dipped in acetone solutions of the test compound and placed in petri dishes containing a portion of larval rearing medium. Treated eggs were maintained at 78° F. and mortality was recorded after all control eggs had hatched and the young larvae were feeding on the media. Test concentrations ranged from 0.1% downward. The LC-50 value is expressed below in Table 3 under the heading "TBW-E" in terms of percent of the test compound in the solution.

Consider `CC(C)(C)C(=Nc1cccc(Cl)c1)OCc1cccc(Oc2ccccc2)c1` [Compound 12], for which the “LC50 CL” value in assay [1] was 0.008%. For the same compound, the “LC50 BBA” value in assay [2] is reported as over 0.05%. For the same compound, the “LC50 HF” value in assay [3] was over 100 µg. Moreover, the “LC50 TBW E (eggs)” value in assay [4] is recorded as over 0.1%.
As to `CC1CC1C(=Nc1ccc(Cl)cc1)OCc1cccc(Oc2ccccc2)c1` (stereo not shown) [Compound 15], in assay [1], the “LC50 CL” value is 0.025%. Moreover, the “LC50 BBA” value in assay [2] is reported as over 0.05%. In assay [3], the “LC50 HF” value was over 100 µg. Besides, the “LC50 TBW E (eggs)” value in assay [4] is reported as over 0.1%.
As for `CC(C)C(=Nc1cc(Cl)c(Cl)cc1Cl)OCc1cccc(Oc2ccccc2)c1` [Compound 18], the “LC50 CL” value in assay [1] turned out to be 0.008%. Further, in assay [2], the “LC50 BBA” value is on record as 0.003%. The “LC50 HF” value in assay [3] was over 100 µg. Further, in assay [4], the “LC50 TBW E (eggs)” value stood at 0.09%.
`CC(C)C(=Nc1c(Cl)cc(Cl)cc1Cl)OCc1cccc(Oc2ccccc2)c1` [Compound 19]: in assay [1], the “LC50 CL” value is under 0.1%. For the same compound, in assay [2], the “LC50 BBA” value is listed as 0.05%. Moreover, the “LC50 HF” value in assay [3] was over 100 µg. For the same compound, in assay [4], the “LC50 TBW E (eggs)” value is over 0.1%.
In the case of `FC(F)(F)c1cccc(N=C(OCc2cccc(Oc3ccccc3)c2)C2CC2)c1` [Compound 86], the “LC50 CL” value in assay [1] was determined as 0.013%. In addition, the “LC50 BBA” value in assay [2] is under 0.05%. Also, the “LC50 HF” value in assay [3] was found to be 65 µg.
The corresponding values for `FC(F)(F)c1ccc(Oc2ccc(COC(=Nc3ccc(Cl)cc3)C(Cl)Cl)cc2)nc1` [Compound 453] are 0.1%, over 0.05% and over 100 µg.
Turning to `CC(C)C(=Nc1ccc(Cl)cc1)OCc1coc(Cc2ccccc2)c1` [Compound 484], the “LC50 CL” value in assay [1] amounted to 0.003%. The “LC50 HF” value in assay [3] was determined as 16 µg. Moreover, the “LC50 TBW E (eggs)” value in assay [4] was over 0.1%.
`CC(C)C(=Nc1ccc(F)c(F)c1)OCc1coc(Cc2ccccc2)c1` [Compound 485]: the “LC50 CL” value in assay [1] is over 0.1%. Further, in assay [3], the “LC50 HF” value was 24 µg. In assay [4], the “LC50 TBW E (eggs)” value is over 0.1%.
In the case of `CC(C)C(=Nc1ccc(F)c(Cl)c1)OCc1ccc(OCc2ccc(F)cc2)cc1` [Compound 487], in assay [1], the “LC50 CL” value came to 0.023%. The “LC50 HF” value in assay [3] was over 100 µg. For the same compound, the “LC50 TBW E (eggs)” value in assay [4] is on record as over 0.1%.
`CC(C)C(=Nc1cccc(C(F)(F)F)c1)OCc1ccc(OCc2ccc(F)cc2)cc1` [Compound 488]: in assay [1], the “LC50 CL” value is given as 0.025%. In addition, the “LC50 HF” value in assay [3] is over 100 µg. Also, the “LC50 TBW E (eggs)” value in assay [4] is on record as over 0.1%.
For `CC(C)C(=Nc1cccc(C(F)(F)F)c1)OCc1cccc(OCc2ccc(F)cc2)c1` [Compound 489], in assay [1], the “LC50 CL” value is given as under 0.1%. Moreover, the “LC50 HF” value in assay [3] was over 100 µg. Further, in assay [4], the “LC50 TBW E (eggs)” value is reported as over 0.1%.
For `CC(C)C(=Nc1ccc(F)cc1)OCc1coc(Cc2ccccc2)c1` [Compound 491], the “LC50 CL” value in assay [1] is recorded as 0.0028%. In assay [3], the “LC50 HF” value is 9 µg. For the same compound, the “LC50 TBW E (eggs)” value in assay [4] is 0.08%.
Regarding `CC(C)C(=Nc1cccc(C(F)(F)F)c1)OCc1cccc(Oc2ccc(Br)cc2)n1` [Compound 493], the “LC50 CL” value in assay [1] stood at 0.0008%. Besides, the “LC50 HF” value in assay [3] was 36 µg. In addition, the “LC50 TBW E (eggs)” value in assay [4] is on record as 0.05%.
`Cc1ccc(Oc2cccc(COC(=Nc3ccc(F)c(Cl)c3)C(C)C)n2)cc1` [Compound 494]: the “LC50 CL” value in assay [1] is on record as 0.003%. Further, the “LC50 HF” value in assay [3] came out at 34 µg. Further, the “LC50 TBW E (eggs)” value in assay [4] was over 0.1%.
Regarding `Cc1ccc(Oc2cccc(COC(=Nc3cccc(C(F)(F)F)c3)C(C)C)n2)cc1` [Compound 495], in assay [1], the “LC50 CL” value stood at 0.012%. For the same compound, the “LC50 HF” value in assay [3] is over 100 µg. For the same compound, the “LC50 TBW E (eggs)” value in assay [4] turned out to be 0.1%.
Regarding `CC(C)C(=Nc1ccc(C(C)(C)C)cc1)OCc1cccc(Oc2ccccc2)n1` [Compound 496], the “LC50 CL” value in assay [1] stood at 0.006%. Further, the “LC50 HF” value in assay [3] is over 100 µg. The “LC50 TBW E (eggs)” value in assay [4] is on record as over 0.1%.
As to `CC(C)C(=Nc1ccc(C(C)(C)C)cc1)OCc1cccc(Oc2ccc(Cl)cc2)n1` [Compound 497], in assay [1], the “LC50 CL” value is recorded as 0.0075%. Besides, the “LC50 HF” value in assay [3] is over 100 µg. Also, in assay [4], the “LC50 TBW E (eggs)” value is over 0.1%.
